Assay results: ChEMBL document CHEMBL3102823, “Tetramic acid analogues produced by coculture of Saccharopolyspora erythraea with Fusarium pallidoroseum” (2014)
Calls of active or inactive are those of the source. The rule behind the calls is not given here.

How the values were obtained:
[1] = (§1) Cytotoxicity against human NCI60 cells assessed as growth inhibition by SRB assay; assay type: functional
Staphylococcus aureus = assay: Antibacterial activity against Staphylococcus aureus by Kirby-Bauer disk diffusion assay; assay type: functional
[2] = test system: Saccharopolyspora erythraea; assay: Antibacterial activity against Saccharopolyspora erythraea by Kirby-Bauer disk diffusion assay
CCRF-CEM = assay: Cytotoxicity against human CCRF-CEM cells assessed as growth inhibition by SRB assay; assay type: functional
NCI60 = assay: as §1; assay type: functional

Row | SMILES | GI50 [1] [µM] | Activity (Staphylococcus aureus) | Activity [2] | GI50 (CCRF-CEM) [µM] | growth inhibition (GI) (NCI60) | MIC (Staphylococcus aureus) [µg] | MIC [2] [µg] | %max (Staphylococcus aureus)
1 | CN1C(=O)C(C(=O)[C@@]2(C)[C@@H]3CC[C@@H](CO)C[C@H]3C=C[C@H]2/C=C/CO)=C(O)C1CO (mixture of isomers) | > 20 | inactive | inactive |  |  |  |  | 
2 | C/C=C/C1C=C[C@@H]2C[C@H](CO)CC[C@H]2[C@]1(C)C(=O)C1=C(O)[C@H](CO)N(C)C1=O (some centres undefined) | > 20 |  |  |  |  |  |  | 
3 | C/C=C/[C@@H]1C=C[C@@H]2C[C@H](CO)CC[C@H]2[C@]1(C)C(=O)C1=C(O)[C@H](CO)NC1=O | > 20 | inactive | inactive |  |  |  |  | 
4 | C/C=C/[C@@H]1C=C[C@@H]2C[C@H](C)CC[C@H]2[C@]1(C)/C(O)=C1/C(=O)[C@H](CO)N(C)C1=O |  |  |  | 0.144 | Active | <1.25 | 2.5 | 
5 | C/C=C/[C@@H]1C=C[C@@H]2C[C@@](C)(O)CC[C@H]2[C@]1(C)C(=O)C1=C(O)[C@H](CO)N(C)C1=O | > 20 |  | inactive |  |  |  |  | inactive
